Data published in BigSolDB 2.1.

COC(=O)/C=C(\C)N[C@@H](C(=O)[O-])c1ccc(O)cc1.[K+]
Settings | solubility (mole fraction)
in 2-pentanol, 293.25 K | 6.22e-05
in 2-pentanol, 298.28 K | 7.86e-05
in 2-pentanol, 303.35 K | 9.99e-05
in 2-pentanol, 308.19 K | 0.000117
in 2-pentanol, 313.15 K | 0.000141
in 2-pentanol, 318.29 K | 0.000169
in 2-pentanol, 323.15 K | 0.000196
in 2-pentanol, 328.34 K | 0.000233
in 2-pentanol, 333.05 K | 0.000267
in 2-pentanol, 338.24 K | 0.00031
in 2-pentanol, 343.26 K | 0.000354
in ethanol, 293.25 K | 0.000405
in ethanol, 298.26 K | 0.000437
in ethanol, 303.25 K | 0.000478
in ethanol, 308.19 K | 0.000519
in ethanol, 313.09 K | 0.00056
in ethanol, 318.26 K | 0.000629
in ethanol, 323.11 K | 0.000681
in ethanol, 328.18 K | 0.000753
in ethanol, 333.41 K | 0.000834
in ethanol, 338.31 K | 0.000916
in ethanol, 343.35 K | 0.00104
in isopropanol, 293.25 K | 5.74e-05
in isopropanol, 298.23 K | 6.38e-05
in isopropanol, 303.05 K | 7.22e-05
in isopropanol, 308.41 K | 8.4e-05
in isopropanol, 313.15 K | 9.66e-05
in isopropanol, 318.26 K | 0.000112
in isopropanol, 323.15 K | 0.00013
in isopropanol, 328.19 K | 0.00015
in isopropanol, 333.35 K | 0.000173
in isopropanol, 338.27 K | 0.000198
in isopropanol, 343.25 K | 0.000225
in methanol, 293.15 K | 0.00346
in methanol, 298.22 K | 0.0037
in methanol, 303.15 K | 0.00396
in methanol, 308.19 K | 0.00424
in methanol, 313.35 K | 0.00454
in methanol, 318.27 K | 0.00485
in methanol, 323.35 K | 0.00519
in methanol, 328.16 K | 0.00552
in methanol, 333.35 K | 0.006
in n-butanol, 293.15 K | 9.97e-05
in n-butanol, 298.31 K | 0.00011
in n-butanol, 302.95 K | 0.000122
in n-butanol, 308.19 K | 0.000139
in n-butanol, 312.95 K | 0.000158
in n-butanol, 318.16 K | 0.000181
in n-butanol, 323.25 K | 0.000207
in n-butanol, 328.29 K | 0.000237
in n-butanol, 333.17 K | 0.000268
in n-butanol, 338.32 K | 0.000304
in n-butanol, 342.95 K | 0.000339
in n-pentanol, 293.05 K | 8.48e-05
in n-pentanol, 298.25 K | 0.000102
in n-pentanol, 303.25 K | 0.000119
in n-pentanol, 308.19 K | 0.000134
in n-pentanol, 313.07 K | 0.000152
in n-pentanol, 318.26 K | 0.00017
in n-pentanol, 323.25 K | 0.00019
in n-pentanol, 328.17 K | 0.000209
in n-pentanol, 333.25 K | 0.000226
in n-pentanol, 338.13 K | 0.000252
in n-pentanol, 343.35 K | 0.000279
in n-propanol, 293.15 K | 0.000178
in n-propanol, 298.23 K | 0.000191
in n-propanol, 303.05 K | 0.000206
in n-propanol, 308.18 K | 0.000228
in n-propanol, 313.05 K | 0.000256
in n-propanol, 318.29 K | 0.00028
in n-propanol, 323.05 K | 0.000306
in n-propanol, 328.21 K | 0.000345
in n-propanol, 333.25 K | 0.000382
in n-propanol, 338.34 K | 0.000427
in n-propanol, 343.35 K | 0.000476
in sec-butanol, 293.35 K | 3.51e-05
in sec-butanol, 298.24 K | 4.38e-05
in sec-butanol, 303.05 K | 5.87e-05
in sec-butanol, 308.17 K | 6.64e-05
in sec-butanol, 313.05 K | 8.11e-05
in sec-butanol, 318.36 K | 9.62e-05
in sec-butanol, 323.23 K | 0.000113
in sec-butanol, 328.26 K | 0.000132
in sec-butanol, 333.15 K | 0.000151
in sec-butanol, 338.28 K | 0.000174
in sec-butanol, 343.23 K | 0.000197
